# Like-named read-outs stand apart in the source and are kept apart here. Residues, ends and D or L forms follow the SMILES beside them.
# Assays:
# [1] = system: MDR/XDR K. pneumoniae clinical isolates; test: microbe, parasite or virus in culture; settings: for MIC: broth microdilution in CAMHB, 20-24 h at 37°C; for MBC: wells with no visible growth plated on MHA, 37°C, kills at least 99.9% of inoculum
# Description: (§1) The ability of K11 to inhibit bacterial growth was determined by the broth microdilution method ([Clinical and Laboratory Standards Institute, 2018]). Briefly, a series of 2-fold dilutions of K11 were prepared from 1,024 to 2 µg/mL in cation-adjusted Mueller-Hinton broth (CAMHB), Then 50 µL of each peptide dilution was added to each well of polystyrene 96-well U-bottom microplates. The log-phase cultures were adjusted to 0.5 McFarland standard and diluted 1:100 in CAMHB to provide the density of 10^6 CFU/mL. Consequently, 50 µL of diluted bacterial suspension was added to wells containing 50 µL of peptide solution, followed by incubation for 20-24 h at 37°C. […] To evaluate MBC, a volume of 10 μL was taken from each well with no visible growth, inoculated on Mueller-Hinton agar (MHA) plates, and incubated at 37°C. The MBC was defined as the lowest concentration of antimicrobials that killed at least 99.9% of the initial inoculums ([Clinical and Laboratory Standards Institute, 1999]).
# [2] = system: K. pneumoniae ATCC BAA-1706
# Description: as §1
# K. pneumoniae ATCC 70063 [3] = system: K. pneumoniae ATCC 70063
# Description: The effects of various cations and serum on the antimicrobial activity of K11 were investigated against K. pneumoniae ATCC 70063 and K. pneumoniae ATCC BAA-1706 by the MIC assay, as described above. […] Subsequently, serially 2-fold diluted K11 solutions were prepared in CAMHB, and aliquots of each peptide solution were added to a 96-well plate. An equal volume of bacterial suspension was added, and the mixtures were incubated at 37°C for 20-24 h ([Ko et al., 2019]). For serum stability, 2 mg/mL of K11 was prepared in solution with 25% and 50% FBS and incubated for 1 h at 37°C, then heat […] for 30 min at 60°C. A series of 2-fold dilutions of K11 were performed in CAMHB and transferred to a 96-well plate. The diluted bacterial suspension was added to the well, and mixtures were incubated for 20-24 h at 37°C ([Oliva et al., 2018]). The antimicrobial activity was determined by measuring the MICs.
# K. pneumoniae ATCC 70063 [4] = system: K. pneumoniae ATCC 70063; remark: listed apart in the source
# Description: (§2) The effects of various cations and serum on the antimicrobial activity of K11 were investigated against K. pneumoniae ATCC 70063 and K. pneumoniae ATCC BAA-1706 by the MIC assay, as described above. For salt stability, 2 mg/mL of K11 was dissolved in solutions containing different salts at their physiological concentrations; NaCl (100, 150, and 200 mM), MgCl2 (0.5, 1 and 2 mM), and FeCl3 (1, 4, and 8 mM), then incubated for 1 h at 37°C. Subsequently, serially 2-fold diluted K11 solutions were prepared in CAMHB, and aliquots of each peptide solution were added to a 96-well plate. An equal volume of bacterial suspension was added, and the mixtures were incubated at 37°C for 20-24 h ([Ko et al., 2019]). For serum stability, 2 mg/mL of K11 was prepared in solution with 25% and 50% FBS and incubated for 1 h at 37°C, then heat […] for 30 min at 60°C. A series of 2-fold dilutions of K11 were performed in CAMHB and transferred to a 96-well plate. The diluted bacterial suspension was added to the well, and mixtures were incubated for 20-24 h at 37°C ([Oliva et al., 2018]). The antimicrobial activity was determined by measuring the MICs.
# [5] = system: K. pneumoniae ATCC BAA-1706; remark: listed apart in the source
# Description: as §2
# [6] = system: K. pneumoniae reference strains; test: MIC determination, broth microdilution; type: cell-based, Klebsiella pneumoniae; settings: K. pneumoniae reference strains (ATCC BAA-1706, ATCC 70063)
# [7] = ref Jin-Jiang et al., 2012; cited from earlier work
# Description: K11 is a synthetic peptide derived from natural AMPs (cecropin A1, melittin, and maganin 2), composed of 20 amino acids ([…]-NH2). […] Moreover, K11 has also been successfully used in vivo as a topic hydrogel solution against Acinetobacter baumannii-infected wounds ([Rishi et al., 2018]).
# [8] = murine excision model; ref Rishi et al., 2018; cited from earlier work
# Description: The pH and thermal stability of AMPs are essential for their preparation, processing, and storage ([Zong et al., 2016]). At the same time, the stability of AMPs in serum and under physiological salt conditions is also crucial when administrating AMPs in vivo ([Rodríguez et al., 2021]).
# [9] = MDR/XDR K. pneumoniae clinical isolates
# [10] = K11 2 mg/mL in 25% FBS, 1 h at 37°C, then 30 min at 60°C, then MIC in CAMHB
# [11] = K11 2 mg/mL in 50% FBS, 1 h at 37°C, then 30 min at 60°C, then MIC in CAMHB
compound,measurement,setting,value
CC[C@H](C)[C@H](NC(=O)[C@H](Cc1ccccc1)NC(=O)[C@H](CO)NC(=O)[C@H](CCCCN)NC(=O)[C@H](Cc1c[nH]c2ccccc12)NC(=O)[C@@H](N)CCCCN)C(=O)N[C@@H](CCCCN)C(=O)N[C@@H](CCCCN)C(=O)N[C@@H](CC(C)C)C(=O)N[C@H](C(=O)N[C@@H](CCCCN)C(=O)N[C@@H](CCCCN)C(=O)N[C@@H](Cc1ccccc1)C(=O)N[C@@H](CC(C)C)C(=O)N[C@@H](Cc1c[nH]cn1)C(=O)N[C@@H](CO)C(=O)N[C@@H](C)C(=O)N[C@@H](CCCCN)C(=O)N[C@@H](CCCCN)C(=O)N[C@@H](Cc1ccccc1)C(N)=O)[C@@H](C)O [K11] (H-KWKSFIKKLTKKFLHSAKKF-NH2),MIC,[1]; KP-01,8 µg/mL
same,MBC,[1]; KP-01,8 µg/mL
same,MIC,[1]; KP-02,64 µg/mL
same,MBC,[1]; KP-02,64 µg/mL
same,MIC,[1]; KP-03,16 µg/mL
same,MBC,[1]; KP-03,16 µg/mL
same,MIC,[1]; KP-04,64 µg/mL
same,MBC,[1]; KP-04,128 µg/mL
same,MIC,[1]; KP-05,8 µg/mL
same,MBC,[1]; KP-05,8 µg/mL
same,MIC,[1]; KP-06,64 µg/mL
same,MBC,[1]; KP-06,128 µg/mL
same,MIC,[1]; KP-07,16 µg/mL
same,MBC,[1]; KP-07,16 µg/mL
same,MIC,[1]; KP-08,64 µg/mL
same,MBC,[1]; KP-08,128 µg/mL
same,MIC,[1]; KP-09,64 µg/mL
same,MBC,[1]; KP-09,128 µg/mL
same,MIC,[1]; KP-10,64 µg/mL
same,MBC,[1]; KP-10,128 µg/mL
same,MIC,[1]; KP-11,64 µg/mL
same,MBC,[1]; KP-11,64 µg/mL
same,MIC,[1]; KP-12,64 µg/mL
same,MBC,[1]; KP-12,64 µg/mL
same,MIC,[1]; KP-13,32 µg/mL
same,MBC,[1]; KP-13,32 µg/mL
same,MIC,[1]; KP-14,256 µg/mL
same,MBC,[1]; KP-14,256 µg/mL
same,MIC,[1]; KP-15,512 µg/mL
same,MBC,[1]; KP-15,512 µg/mL
same,MIC50,[1]; [9],64 µg/mL
same,MIC90,[1]; [9],256 µg/mL
same,MIC,"[2]; broth microdilution in CAMHB, 20-24 h at 37°C",2 µg/mL
same,MBC,"[2]; wells with no visible growth plated on MHA, 37°C, kills at least 99.9% of inoculum",2 µg/mL
same,Antimicrobial activity MIC,"K. pneumoniae ATCC 70063 [3]; Control, salt concentration 0",4 µg/mL
same,Antimicrobial activity MIC,"K. pneumoniae ATCC 70063 [3]; K11 2 mg/mL in FeCl3 1 µM, 1 h at 37°C, then MIC in CAMHB",4 µg/mL
same,Antimicrobial activity MIC,"K. pneumoniae ATCC 70063 [3]; K11 2 mg/mL in FeCl3 4 µM, 1 h at 37°C, then MIC in CAMHB",4 µg/mL
same,Antimicrobial activity MIC,"K. pneumoniae ATCC 70063 [3]; K11 2 mg/mL in FeCl3 8 µM, 1 h at 37°C, then MIC in CAMHB",4 µg/mL
same,Antimicrobial activity MIC,"K. pneumoniae ATCC 70063 [3]; K11 2 mg/mL in MgCl2 0.5 mM, 1 h at 37°C, then MIC in CAMHB",4 µg/mL
same,Antimicrobial activity MIC,"K. pneumoniae ATCC 70063 [3]; K11 2 mg/mL in MgCl2 1 mM, 1 h at 37°C, then MIC in CAMHB",4 µg/mL
same,Antimicrobial activity MIC,"K. pneumoniae ATCC 70063 [3]; K11 2 mg/mL in MgCl2 2 mM, 1 h at 37°C, then MIC in CAMHB",8 µg/mL
same,Antimicrobial activity MIC,"K. pneumoniae ATCC 70063 [3]; K11 2 mg/mL in NaCl 100 mM, 1 h at 37°C, then MIC in CAMHB",4 µg/mL
same,Antimicrobial activity MIC,"K. pneumoniae ATCC 70063 [3]; K11 2 mg/mL in NaCl 150 mM, 1 h at 37°C, then MIC in CAMHB",4 µg/mL
same,Antimicrobial activity MIC,"K. pneumoniae ATCC 70063 [3]; K11 2 mg/mL in NaCl 200 mM, 1 h at 37°C, then MIC in CAMHB",4 µg/mL
same,Antimicrobial activity MIC,K. pneumoniae ATCC 70063 [4]; 0% FBS (control),4 µg/mL
same,Antimicrobial activity MIC,K. pneumoniae ATCC 70063 [4]; [10],4 µg/mL
same,Antimicrobial activity MIC,K. pneumoniae ATCC 70063 [4]; [11],4 µg/mL
same,Antimicrobial activity MIC,[5]; 0% FBS (control),2 µg/mL
same,Antimicrobial activity MIC,[5]; [10],2 µg/mL
same,Antimicrobial activity MIC,[5]; [11],2 µg/mL
same,"MIC, range over strains",[6],2 to 4 µg/mL
same,hemolytic activity,[7],no hemolytic activity
same,cytotoxicity,[8],no cytotoxicity

# Source: paper PMC10126264, “Synergistic effect and antibiofilm activity of the antimicrobial peptide K11 with conventional antibiotics against multidrug-resistant and extensively drug-resistant Klebsiella pneumoniae” (Frontiers in Cellular and Infection Microbiology, 2023)
